The target in data set [1] is T1, recombinant rat mGluR2 expressed in CHO cells (Rattus norvegicus, UniProt P31421).
T1 construct: expressed in transfected cells; vector pcDNA I-amp, construct pcD1mGR2
Put plainly: [3H]-LY354740 binding on mGlu2 transfected CHO cell membranes (displacement binding assay).
Text: These values were obtained by indirect measurement of the affinity of the compounds for the recombinant rat mGluR2 expressed in CHO cells using a displacement binding assay with 3H-LY354740.
Transfection and Cell Culture
cDNA encoding the rat mGlu2 receptor protein in pBluescript II was obtained from Prof. S. Nakanishi (Kyoto, Japan), and subcloned into the eukaryotic expression vector pcDNA I-amp from Invitrogen (NV Leek, The Netherlands). This vector construct (pcD1mGR2) was co-transfected with a psvNeo plasmid encoding the gene for neomycin resistance, into CHO cells by a modified calcium phosphate method described by Chen & Okayama (1988). The cells were maintained in Dulbecco's Modified Eagle medium with reduced L-glutamine (2 mM final concentration) and 10% dialysed foetal calf serum from Gibco BRL (Basel, Switzerland). Selection was made in the presence of G-418 (1000 ug/ml final). Clones were identified by reverse transcription of 5 μg total RNA, followed by PCR using mGlu2 receptor specific primers 5′-[sequence]-3′ and 5′-[sequence]-3′ in 60 mM Tris HCl (pH 10), 15 mM (NH4)2SO4, 2 mM MgCl2, 25 units/ml Taq Polymerase with 30 cycles annealing at 60° C. for 1 min., extention at 72° C. for 30 s, and 1 min. 95° C. denaturation.
Cells, cultured as above, were harvested and washed three times with cold PBS and frozen at −80° C. The pellet was resuspended in cold 20 mM HEPES-NaOH buffer containing 10 mM EDTA (pH 7.4), and homogenised with a polytron (Kinematica, AG, Littau, Switzerland) for 10 s at 10 000 rpm. After centrifugation for 30 min. at 4° C., the pellet was washed once with the same buffer, and once with cold 20 mM HEPES-NaOH buffer containing 0.1 mM EDTA, (pH 7.4). Protein content was measured using the Pierce method (Socochim, Lausanne, Switzerland) using bovine serum albumin as standard.
After thawing, the membranes were resuspended in cold 50 mM Tris-HCl buffer containing 2 mM MgCl2 and 2 mM CaCl2, (pH 7) (binding buffer). The final concentration of the membranes in the assays was 25 µg protein/ml. Inhibition experiments were performed with membranes incubated with 10 nM [^3H]-LY354740 at room temperature, for 1 hour, in presence of various concentrations of the compound to be tested. Following the incubations, membranes were filtered onto Whatmann GF/C glass fiber filters and washed 5 times with cold binding buffer. Non specific binding was measured in the presence of 10 μM DCG IV. After transfer of the filters into plastic vials containing 10 ml of Ultima-gold scintillation fluid (Packard, Zürich, Switzerland), the radioactivity was measured by liquid scintillation in a Tri-Carb 2500 TR counter (Packard, Zürich, Switzerland).
The inhibition curves were fitted with a four parameter logistic equation giving IC50 values, and Hill coefficients and the Ki values were calculated using the Cheng and Prusoff equation (Cheng, Y. and Prusoff, W. H., Biochem. Pharmacol. 1973, 22, 3099-3108). A small Ki value expresses high affinity of the compound towards the receptor.

pKi: −log10 of the molar value.

T1 sequence (P31421 19-872): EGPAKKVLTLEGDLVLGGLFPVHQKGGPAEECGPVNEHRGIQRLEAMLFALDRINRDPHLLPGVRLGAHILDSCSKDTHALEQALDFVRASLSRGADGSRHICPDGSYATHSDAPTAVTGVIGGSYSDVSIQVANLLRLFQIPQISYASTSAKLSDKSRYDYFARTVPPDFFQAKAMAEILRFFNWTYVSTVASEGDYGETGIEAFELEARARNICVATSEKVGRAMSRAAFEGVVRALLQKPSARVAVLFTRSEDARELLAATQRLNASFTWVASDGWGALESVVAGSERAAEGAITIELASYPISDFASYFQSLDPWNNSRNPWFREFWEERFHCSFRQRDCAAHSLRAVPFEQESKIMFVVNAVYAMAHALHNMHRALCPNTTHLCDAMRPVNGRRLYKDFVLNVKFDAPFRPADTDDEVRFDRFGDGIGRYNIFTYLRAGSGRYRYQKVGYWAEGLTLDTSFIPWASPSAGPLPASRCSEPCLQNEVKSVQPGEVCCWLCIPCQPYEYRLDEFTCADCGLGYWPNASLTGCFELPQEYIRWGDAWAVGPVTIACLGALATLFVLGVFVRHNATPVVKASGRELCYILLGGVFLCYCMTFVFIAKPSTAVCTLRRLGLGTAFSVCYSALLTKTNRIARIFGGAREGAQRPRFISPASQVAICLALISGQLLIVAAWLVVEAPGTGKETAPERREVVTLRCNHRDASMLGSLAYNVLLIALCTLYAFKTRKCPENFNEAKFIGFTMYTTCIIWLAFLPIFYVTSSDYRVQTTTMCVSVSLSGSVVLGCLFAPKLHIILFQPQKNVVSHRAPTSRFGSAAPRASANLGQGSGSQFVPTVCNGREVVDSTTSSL

`CN(C)c1cc2c(cc1-c1cccc(F)c1F)NC(=O)CC(c1cccc(-n3ccnn3)c1)=N2` [Example 8, 8-(2,3-Difluoro-phenyl)-7-dimethylamino-4-(3-[1,2,3]triazol-1-yl-phenyl)-1,3-dihydro-benzo[b][1,4]diazepin-2-one]: the melting point was in the range of 197 to 199 °C. Besides, in data set [1], the pKi was 7.15.

`COCCN(C)c1cc2c(cc1Cl)NC(=O)CC(c1cccc(-c3cc(C)no3)c1)=N2` [Example 11] yielded a melting point of 182 °C. The pKi in data set [1] is 7.60.

Molecule `CN(C)c1cc2c(cc1Cl)NC(=O)CC(c1cccc(-c3ccnn3C)c1)=N2` [Example 16, 8-Chloro-7-dimethylamino-4-[3-(2-methyl-2H-pyrazol-3-yl)-phenyl]-1,3-dihydro-benzo[b][1,4]diazepin-2-one] showed a melting point of 225 °C. Moreover, the pKi in data set [1] is 7.64.

On to `CN(C)c1cc2c(cc1Cl)NC(=O)CC(c1cccc(-c3nc(CO)cs3)c1)=N2` [Example 19, 8-Chloro-7-dimethylamino-4-[3-(4-hydroxymethyl-thiazol-2-yl)-phenyl]-1,3-dihydro-benzo[b][1,4]diazepin-2-one], for which the melting point was 134 °C (dec.). Also, the pKi in data set [1] is 7.52.

As to `Cc1cc(-c2cccc(C3=Nc4cc(OCC(F)(F)F)c(-c5ccccc5F)cc4NC(=O)C3)c2)on1` [Example 24, 8-(2-Fluoro-phenyl)-4-[3-(3-methyl-isoxazol-5-yl)-phenyl]7-(2,2,2-trifluoro-ethoxy)-1,3-dihydro-benzo[b][1,4]diazepin-2-one], the melting point was 218 to 220 °C. Further, in data set [1], the pKi was 7.52.

In turn, `CN(C)c1cc2c(cc1Cl)NC(=O)CC(c1cccc(-c3nc(CO)co3)c1)=N2` [Example 27, 8-Chloro-7-dimethylamino-4-[3-(4-hydroxymethyl-oxazol-2-yl)-phenyl]-1,3-dihydro-benzo[b][1,4]diazepin-2-one] had a melting point of 193 to 195 °C. In addition, the pKi in data set [1] was 7.41.

Take `CCCN(C)c1cc2c(cc1Cl)NC(=O)CC(c1cccc(-n3nncc3CO)c1)=N2` [Example 29, 8-Chloro-7-(methyl-propyl-amino)-4-[3-(5-hydroxymethyl-[1,2,3]triazol-1-yl)-phenyl]-1,3-dihydro-benzo[b][1,4]diazepin-2-one]: the melting point is 178 °C (dec.). In addition, the pKi in data set [1] was 7.52.

`CCN(CC)c1cc2c(cc1Cl)NC(=O)CC(c1cccc(-n3nncc3CO)c1)=N2` [Example 30, 8-Chloro-7-(diethyl-amino)-4-[3-(5-hydroxymethyl-[1,2,3]triazol-1-yl)-phenyl]-1,3-dihydro-benzo[b][1,4]diazepin-2-one]: the melting point was 208 °C (dec.). For the same molecule, the pKi in data set [1] is 7.36.

Consider `O=C1CC(c2cccc(-n3nncc3CO)c2)=Nc2cc(N3CCCC3)c(Cl)cc2N1` [Example 32, 8-Chloro-4-[3-(5-hydroxymethyl-[1,2,3]triazol-1-yl)-phenyl]-7-pyrrolidin-1-yl-1,3-dihydro-benzo[b][1,4]diazepin-2-one], for which the melting point fell in the range of 193 to 197 °C. Further, the pKi in data set [1] was 7.72.

In turn, `CN(C)c1cc2c(cc1Cl)NC(=O)CC(c1cccc(-n3cccn3)c1)=N2` [Example 52, 8-Chloro-7-dimethylamino-4-(3-pyrazol-1-yl-phenyl)-1,3-dihydro-benzo[b][1,4]diazepin-2-one] displayed a melting point of 231 to 234 °C. In addition, in data set [1], the pKi was 6.96.

For `CN(C)c1cc2c(cc1C(F)(F)F)NC(=O)CC(c1cccc(-c3cc(CN4CCOCC4)no3)c1)=N2` [Example 54, 7-Dimethylamino-4-[3-(3-morpholin-4-ylmethyl-isoxazol-5-yl)-phenyl]-8-trifluoromethyl-1,3-dihydro-benzo[b][1,4]diazepin-2-one], the melting point turned out to be 165 °C. Besides, the pKi in data set [1] is 6.90.

The molecule `CSc1nccn1-c1cccc(C2=Nc3cc(N(C)C)c(C(F)(F)F)cc3NC(=O)C2)c1` [Example 71, 7-Dimethylamino-4-[3-(2-methylsulfanyl-imidazol-1-yl)-phenyl]-8-trifluoromethyl-1,3-dihydro-benzo[b][1,4]diazepin-2-one] displayed a melting point of 192 °C. Also, in data set [1], the pKi is 7.72.

`CN(CC1CC1)c1cc2c(cc1C(F)(F)F)NC(=O)CC(c1ccnc(C#N)c1)=N2` [Example 78, 4-[8-(Cyclopropylmethyl-methyl-amino)-4-oxo-7-trifluoromethyl-4,5-dihydro-3H-benzo[b][1,4]diazepin-2-yl]-pyridine-2-carbonitrile] displayed a melting point of 155 °C. Further, the pKi in data set [1] was 8.30.

Turning to `CN(C)c1cc2c(cc1C(F)(F)F)NC(=O)CC(c1cccc(-n3nncc3CNC3CC3)c1)=N2` [Example 82, 4-[3-(5-Cyclopropylaminomethyl-[1,2,3]triazol-1-yl)-phenyl]-7-dimethylamino-8-trifluoromethyl-1,3-dihydro-benzo[b][1,4]diazepin-2-one], the pKi in data set [1] was 7.31.

On to `N#Cc1cc(C2=Nc3cc(OCC(F)(F)F)c(C(F)(F)F)cc3NC(=O)C2)ccn1` [Example 88, 4-[4-Oxo-8-(2,2,2-trifluoro-ethoxy)-7-trifluoromethyl-4,5-dihydro-3H-benzo[b][1,4]diazepin-2-yl]-pyridine-2-carbonitrile], for which the melting point lay within 252 to 255 °C. The pKi in data set [1] is 8.40.

In the case of `CCCN(C)c1cc2c(cc1C)NC(=O)CC(c1cccc(C#N)c1)=N2` [Example 92, 3-[7-Methyl-8-(methyl-propyl-amino)-4-oxo-4,5-dihydro-3H-benzo[b][1,4]diazepin-2-yl]-benzonitrile], the melting point was determined as 195 °C. The pKi in data set [1] was 7.60.

Regarding `CC(C)CN(C)c1cc2c(cc1Cl)NC(=O)CC(c1cccc(-n3nncc3CO)c1)=N2` [Example 101, 8-Chloro-4-[3-(5-hydroxymethyl-[1,2,3]triazol-1-yl)-phenyl]-7-(isobutyl-methyl-amino)-1,3-dihydro-benzo[b][1,4]diazepin-2-one], the melting point was 201 °C. In data set [1], the pKi was 7.70.

In turn, `CCN(CC)c1cc2c(cc1C#N)NC(=O)CC(c1cccc(-c3cc(C)no3)c1)=N2` [Example 107, 8-Diethylamino-2-[3-(3-methyl-isoxazol-5-yl)-phenyl]-4-oxo-4,5-dihydro-3H-benzo[b][1,4]diazepine-7-carbonitrile] yielded a melting point of 191 °C. The pKi in data set [1] is 8.05.

In the case of `CCCN(C)c1cc2c(cc1Cl)NC(=O)CC(c1cccc(-n3nncc3CN3CCC3)c1)=N2` [Example 122, 4-[3-(5-Azetidin-1-ylmethyl-[1,2,3]triazol-1-yl)-phenyl]-8-chloro-7-(methyl-propyl-amino)-1,3-dihydro-benzo[b][1,4]diazepin-2-one], the melting point is 169 °C. The pKi in data set [1] was 7.82.

Consider `CC(C)CN(C)c1cc2c(cc1Cl)NC(=O)CC(c1cccc(-n3ncnc3CO)c1)=N2` [Example 163, 8-Chloro-4-[3-(5-hydroxymethyl-[1,2,4]triazol-1-yl)-phenyl]-7-(isobutyl-methyl-amino)-1,3-dihydro-benzo[b][1,4]diazepin-2-one], for which the melting point turned out to be 195 °C. In addition, in data set [1], the pKi is 7.05.

In the case of `CCCN(C)c1cc2c(cc1C(F)(F)F)NC(=O)CC(c1cccc(-n3cncn3)c1)=N2` [Example 169], the melting point was 185 °C. In data set [1], the pKi was 7.57.

Regarding `CC(C)CN(C)c1cc2c(cc1C(F)(F)F)NC(=O)CC(c1cccc(-n3cncn3)c1)=N2` [Example 174, 7-(Isobutyl-methyl-amino)-4-(3-[1,2,4]triazol-1-yl-phenyl)-8-trifluoromethyl-1,3-dihydro-benzo[b][1,4]diazepin-2-one], the melting point is 198 °C. Further, in data set [1], the pKi is 7.92.

On to `CC(C)CN(C)c1cc2c(cc1Cl)NC(=O)CC(c1cccc(-c3nc(CO)cs3)c1)=N2` [Example 186, 8-Chloro-4-[3-(4-hydroxymethyl-thiazol-2-yl)-phenyl]-7-(isobutyl-methyl-amino)-1,3-dihydro-benzo[b][1,4]diazepin-2-one], for which the melting point was in the range of 135 to 136 °C. In addition, the pKi in data set [1] was 8.52.

As to `CCNc1nc(-c2cccc(C3=Nc4cc(N(C)C)c(Cl)cc4NC(=O)C3)c2)cs1` [Example 195, 8-Chloro-7-dimethylamino-4-[3-(2-ethylamino-thiazol-4-yl)-phenyl]-1,3-dihydro-benzo[b][1,4]diazepin-2-one], the melting point fell in the range of 122 to 123 °C. The pKi in data set [1] is 6.32.

`CN(C)c1cc2c(cc1C(F)(F)F)NC(=O)CC(c1cccc(-c3nnc(CO)s3)c1)=N2` [Example 204, 7-Dimethylamino-4-[3-(5-hydroxymethyl-[1,3,4]thiadiazol-2-yl)-phenyl]-8-trifluoromethyl-1,3-dihydro-benzo[b][1,4]diazepin-2-one] showed a melting point of 242 to 246 °C. Moreover, the pKi in data set [1] is 7.77.

On to `CCCc1oc(C)nc1-c1cccc(C2=Nc3cc(N(C)C)c(C(F)(F)F)cc3NC(=O)C2)c1` [Example 212, 7-Dimethylamino-4-[3-(2-methyl-5-propyl-oxazol-4-yl)-phenyl]-8-trifluoromethyl-1,3-dihydro-benzo[b][1,4]diazepin-2-one], for which the melting point is 211 to 212 °C. In data set [1], the negative logarithm of the Ki (pKi) is 7.34.

`CCCN(C)c1cc2c(cc1C(F)(F)F)NC(=O)CC(c1cccc(-c3nnc(CO)s3)c1)=N2` [Example 222, 4-[3-(5-Hydroxymethyl-[1,3,4]thiadiazol-2-yl)-phenyl]-7-(methyl-propyl-amino)-8-trifluoromethyl-1,3-dihydro-benzo[b][1,4]diazepin-2-one]: the melting point was in the range of 193 to 194 °C. Also, the pKi in data set [1] was 8.10.

Usually pKi stands for −log10 of the Ki, conventionally taken in molar units. The melting point is the temperature of the solid-liquid transition.

(Values after patent US6544985B2, “Dihydro-benzo [b][1,4]diazepin-2-one derivatives” (Hoffman-La Roche Inc., priority 2001, dated 2003).)
